Molecular target: T1, YFP-AtCESA6 (Arabidopsis thaliana, UniProt Q94JQ6)
T1 construct: expressed in transfected cells; host or cells: transgenic Arabidopsis thaliana YFP-AtCESA6 seedlings (total protein extract for DARTS; root epidermal cells for imaging)
T1 sequence (Q94JQ6 1-1084): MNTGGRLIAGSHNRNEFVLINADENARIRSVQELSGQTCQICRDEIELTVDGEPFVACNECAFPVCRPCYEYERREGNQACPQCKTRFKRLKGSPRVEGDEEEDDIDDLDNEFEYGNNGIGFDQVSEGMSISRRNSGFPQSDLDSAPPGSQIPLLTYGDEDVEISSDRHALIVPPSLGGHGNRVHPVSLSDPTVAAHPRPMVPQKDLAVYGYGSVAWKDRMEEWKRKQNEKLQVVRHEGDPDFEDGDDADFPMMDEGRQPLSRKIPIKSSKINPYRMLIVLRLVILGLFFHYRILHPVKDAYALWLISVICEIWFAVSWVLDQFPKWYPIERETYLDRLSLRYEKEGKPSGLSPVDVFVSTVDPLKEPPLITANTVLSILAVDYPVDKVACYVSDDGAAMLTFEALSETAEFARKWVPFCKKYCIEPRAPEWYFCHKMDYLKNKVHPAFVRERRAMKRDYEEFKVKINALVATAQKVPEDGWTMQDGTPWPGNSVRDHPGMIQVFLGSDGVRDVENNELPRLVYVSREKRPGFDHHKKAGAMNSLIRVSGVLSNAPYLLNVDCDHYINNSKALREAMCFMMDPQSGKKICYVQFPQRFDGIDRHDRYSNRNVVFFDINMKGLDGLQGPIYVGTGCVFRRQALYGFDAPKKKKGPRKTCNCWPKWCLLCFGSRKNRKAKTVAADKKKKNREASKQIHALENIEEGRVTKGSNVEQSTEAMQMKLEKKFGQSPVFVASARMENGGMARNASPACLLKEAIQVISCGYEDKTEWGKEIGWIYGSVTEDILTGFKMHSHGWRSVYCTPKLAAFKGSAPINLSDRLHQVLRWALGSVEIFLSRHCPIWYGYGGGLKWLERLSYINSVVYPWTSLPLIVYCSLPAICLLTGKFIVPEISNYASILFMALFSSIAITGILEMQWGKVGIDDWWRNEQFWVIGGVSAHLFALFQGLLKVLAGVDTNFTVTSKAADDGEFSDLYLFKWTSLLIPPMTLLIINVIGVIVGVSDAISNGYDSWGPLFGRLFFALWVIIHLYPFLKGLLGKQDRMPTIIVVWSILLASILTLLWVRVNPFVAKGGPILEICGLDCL
T1 sequence (O48946 1-1081 partner): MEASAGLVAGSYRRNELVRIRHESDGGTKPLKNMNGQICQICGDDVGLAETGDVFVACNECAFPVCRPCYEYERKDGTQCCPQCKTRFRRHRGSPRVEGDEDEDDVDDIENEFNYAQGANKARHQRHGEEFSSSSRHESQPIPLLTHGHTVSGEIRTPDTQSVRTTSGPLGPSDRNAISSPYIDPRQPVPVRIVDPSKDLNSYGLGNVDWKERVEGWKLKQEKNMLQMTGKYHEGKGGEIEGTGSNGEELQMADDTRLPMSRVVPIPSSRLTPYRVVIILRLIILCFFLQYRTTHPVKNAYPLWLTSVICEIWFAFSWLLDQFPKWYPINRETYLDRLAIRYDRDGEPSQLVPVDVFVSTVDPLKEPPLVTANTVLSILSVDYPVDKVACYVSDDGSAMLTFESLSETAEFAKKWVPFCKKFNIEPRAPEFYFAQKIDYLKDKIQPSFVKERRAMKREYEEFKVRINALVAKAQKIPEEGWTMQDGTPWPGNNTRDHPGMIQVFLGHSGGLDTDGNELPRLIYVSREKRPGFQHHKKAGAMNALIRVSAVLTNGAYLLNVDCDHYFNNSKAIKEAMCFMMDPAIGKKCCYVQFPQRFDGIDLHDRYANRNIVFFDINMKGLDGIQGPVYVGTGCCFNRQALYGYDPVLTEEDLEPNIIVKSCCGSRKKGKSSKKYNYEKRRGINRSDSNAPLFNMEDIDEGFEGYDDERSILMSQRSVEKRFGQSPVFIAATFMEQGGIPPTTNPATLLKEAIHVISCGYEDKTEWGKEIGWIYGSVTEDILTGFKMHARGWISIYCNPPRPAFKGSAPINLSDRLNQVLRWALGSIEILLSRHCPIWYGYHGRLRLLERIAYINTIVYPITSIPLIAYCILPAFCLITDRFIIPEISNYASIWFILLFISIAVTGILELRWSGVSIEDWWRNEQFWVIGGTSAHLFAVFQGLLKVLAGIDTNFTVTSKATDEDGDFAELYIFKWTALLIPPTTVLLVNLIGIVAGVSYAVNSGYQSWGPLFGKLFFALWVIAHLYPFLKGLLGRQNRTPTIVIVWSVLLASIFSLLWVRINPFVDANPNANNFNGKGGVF
T1 sequence (Q941L0 1-1065 partner): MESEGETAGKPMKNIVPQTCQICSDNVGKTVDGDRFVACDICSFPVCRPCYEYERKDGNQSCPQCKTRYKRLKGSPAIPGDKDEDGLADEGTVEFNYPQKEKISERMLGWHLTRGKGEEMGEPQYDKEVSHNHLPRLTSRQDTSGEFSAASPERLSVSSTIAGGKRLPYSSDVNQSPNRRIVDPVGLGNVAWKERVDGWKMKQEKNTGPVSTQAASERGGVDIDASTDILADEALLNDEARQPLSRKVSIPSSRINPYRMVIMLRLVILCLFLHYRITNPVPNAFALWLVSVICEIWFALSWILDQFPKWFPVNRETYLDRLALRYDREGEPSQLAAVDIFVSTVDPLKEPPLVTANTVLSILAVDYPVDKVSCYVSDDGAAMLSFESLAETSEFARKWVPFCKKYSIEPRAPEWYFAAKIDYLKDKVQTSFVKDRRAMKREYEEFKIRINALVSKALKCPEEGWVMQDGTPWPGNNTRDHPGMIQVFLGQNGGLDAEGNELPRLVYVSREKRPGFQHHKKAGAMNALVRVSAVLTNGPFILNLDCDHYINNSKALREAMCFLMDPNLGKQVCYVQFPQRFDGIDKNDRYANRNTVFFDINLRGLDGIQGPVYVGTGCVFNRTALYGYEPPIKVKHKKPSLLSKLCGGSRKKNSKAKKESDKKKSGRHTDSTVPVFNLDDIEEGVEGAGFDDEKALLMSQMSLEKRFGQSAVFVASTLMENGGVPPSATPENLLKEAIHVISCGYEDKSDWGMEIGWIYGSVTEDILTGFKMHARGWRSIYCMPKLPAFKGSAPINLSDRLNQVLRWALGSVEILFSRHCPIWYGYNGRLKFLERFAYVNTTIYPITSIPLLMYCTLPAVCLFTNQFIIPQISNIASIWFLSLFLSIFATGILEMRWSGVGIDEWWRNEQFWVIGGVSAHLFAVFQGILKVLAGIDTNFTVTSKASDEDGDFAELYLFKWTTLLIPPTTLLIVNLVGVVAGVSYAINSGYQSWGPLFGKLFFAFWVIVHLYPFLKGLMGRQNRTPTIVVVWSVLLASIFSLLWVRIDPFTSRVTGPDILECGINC
Test: DARTS assay
Type: binding
Details: total protein from YFP-AtCESA6 seedlings, vs DMSO
Protocol: To further validate that ES20-1 targets AtCESA6, we looked for a direct interaction between ES20-1 and AtCESA6. We performed a DARTS (Drug Affinity Responsive Target Stability) assay to test the interaction of ES20-1 with endogenous AtCESA6. We incubated total protein from YFP-AtCESA6 seedlings with either DMSO (as a control) or ES20-1 and digested the mixtures with protease. […] We also purified the central cytosolic domain of AtCESA6 (CESA6c) from E. coli (FIG. 3J) and performed a Microscale thermophoresis (MST) assay to test its interaction with ES20-1. […] We purified AtCESA6 central cytoplasmic domain carrying missense mutation P595S (CESA6c^P595S) and tested its interaction with ES20 and ES20-1 (3O).
To test for an interaction between AtCESA6 and ES20-1 using a DARTS assay, 7-day-old YFP-AtCESA6 light-grown seedlings were harvested and ground to a powder in liquid nitrogen. The ground tissue was homogenized in lysis buffer (50 mM Tris-HCl, pH 7.5, 150 mM NaCl, 0.5% Triton X-100, 2 mM DTT, one tablet/50 mL EDTA free Pierce protease inhibitor [Thermo Fisher]) at 2:1 ratio (2 mL buffer: 1 g tissue). […] The X-ray films were scanned, and the signal intensity of each protein band was quantified after background subtraction using Image J. The relative intensities were quantified by dividing the values in ES20-1-treated samples by the values in DMSO-treated samples.

In the case of `Cc1ccccc1C(=O)NNC(=S)NC(=O)c1ccccc1` [ES20-1], the “interaction with endogenous AtCESA6 (protection from protease)” value is reported as “interacts with endogenous AtCESA6 and protects it from degradation”.
